According to patent US20230069886A1, “AROMATIC SULPHONAMIDES DERIVATIVES THAT INHIBITS PDI A3, THEIR SYNTHESIS AND USE” (Uniwersytet Jagiellonski, priority 2020, published 2023):
Values after ≈ are worked out from the molar mass of the structure shown. Values belong to the compound of their own block, whether it stands above or below them.

Columns and labels:
HT-29 [1] = test: MTT antiproliferative assay, 72 h, HT-29; assay type: cell-based, human; conditions: Homo sapiens, HT-29, 72 hours exposition, read-out: IC50 [μg/ml] HT-29 normal
Protocol: Anticancer activity of selected compounds of invention, PDI A3-inhibitors has been also tested in vitro in antiproliferative assay in normoxic and hypoxic conditions as well in estrogen-stimulated cancer cells. In the experiment, cells were seeded on 96-well plates (Sarstedt, Germany) in appropriate culture medium at a density of 10^5 cells/mL 24 h before adding the tested compounds. Cells were treated with each compound in four concentrations in the range 0.1-100 μg/mL. […] After 72 h of compound treatment at 37° C., 5% CO2 humid atmosphere and in wo different oxygen level conditions: 21%—normal and <1%—hypoxia. In some experiments the MDA-MB-231 and MCF-7 cells were seeded with or without 200 nM estradiol and after 24 h the tested compounds were added. […] Briefly, cells were fixed with 50 μL/well of 50% (w/v) trichloroacetic acid (Avantor Performance Materials, Gliwice, Poland). After 1 h incubation, plates were washed several times with tap water and 50 μL of 0.4% (w/v) solution of sulforhodamine B (Sigma-Aldrich, Germany) in 1% (v/v) acetic acid (Avantor Performance Materials, Gliwice, Poland) was added to each well. After 30 min incubation at room temperature, unbound dye was washed out with 1% (v/v) acetic acid, whereas bound dye was solubilized with 10 mM unbuffered TRIS (Avantor Performance Materials, Gliwice, Poland) solution. The entire procedure was performed using a BioTek EL-406 washing station (BioTek Instruments, USA). After additional 30 min, absorbance was read using a Biotek Hybrid H4 reader (BioTek Instruments, USA) at 540 nm wavelength. […] Absorbance was measured using a Biotek Hybrid H4 reader at 570 nm wavelength for MTT assay.
(§1) Compounds at each concentration were tested in triplicate in a single experiment and each experiment was repeated at least three times independently. Results are presented as mean IC50±SD.

MCF-7 [2] = test: MTT antiproliferative assay, 72 h, with or without estradiol, MCF-7; assay type: cell-based, human; conditions: Homo sapiens, MCF7, 72 hours exposition, MTT
Protocol: (§2) Anticancer activity of selected compounds of invention, PDI A3-inhibitors has been also tested in vitro in antiproliferative assay in normoxic and hypoxic conditions as well in estrogen-stimulated cancer cells. In the experiment, cells were seeded on 96-well plates (Sarstedt, Germany) in appropriate culture medium at a density of 10^5 cells/mL 24 h before adding the tested compounds. Cells were treated with each compound in four concentrations in the range 0.1-100 μg/mL. […] After 72 h of compound treatment at 37° C., 5% CO2 humid atmosphere and in wo different oxygen level conditions: 21%—normal and <1%—hypoxia. In some experiments the MDA-MB-231 and MCF-7 cells were seeded with or without 200 nM estradiol and after 24 h the tested compounds were added. A previously described sulforhodamine B antiproliferative assay was used with minor modifications (Skehan P et al., 1990). Briefly, cells were fixed with 50 μL/well of 50% (w/v) trichloroacetic acid (Avantor Performance Materials, Gliwice, Poland). After 1 h incubation, plates were washed several times with tap water and 50 μL of 0.4% (w/v) solution of sulforhodamine B (Sigma-Aldrich, Germany) in 1% (v/v) acetic acid (Avantor Performance Materials, Gliwice, Poland) was added to each well. After 30 min incubation at room temperature, unbound dye was washed out with 1% (v/v) acetic acid, whereas bound dye was solubilized with 10 mM unbuffered TRIS (Avantor Performance Materials, Gliwice, Poland) solution. The entire procedure was performed using a BioTek EL-406 washing station (BioTek Instruments, USA). After additional 30 min, absorbance was read using a Biotek Hybrid H4 reader (BioTek Instruments, USA) at 540 nm wavelength. MTT assay was used alternatively for HL-60 cell line and in the experiment in which estrogens are added (specified in the table legend). Absorbance was measured using a Biotek Hybrid H4 reader at 570 nm wavelength for MTT assay.
as §1

MCF-10A = test: Selectivity index MCF-10A versus MCF-7; assay type: cell-based; conditions: 72 hours exposition
Protocol: as §2
Compounds at each concentration were tested in triplicate in a single experiment and each experiment was repeated at least three times independently. […]

MDA-MB-231 [3] = test: MTT antiproliferative assay, 72 h, with or without estradiol, MDA-MB-231; assay type: cell-based, human; conditions: Homo sapiens, MDA-MB-231, 72 hours exposition, MTT
Protocol: as §2, §1

HL-60 = test: MTT antiproliferative assay, 72 h, HL-60; assay type: cell-based, human; conditions: Homo sapiens, HL-60, 72 hours exposition, read-out: IC50 [μg/ml] HL-60 normal
Protocol: as §2, §1

MDA-MB-231 [4] = test: MTT antiproliferative assay, 48 h, MDA-MB-231; assay type: cell-based, human; conditions: Homo sapiens, MDA-MB-231, 48-hour exposition, read-out: Cytotoxicity, IC50, μM MDA-MB-231
Protocol: Anticancer activity of compounds of invention, PDI A3-inhibitors has been tested in vitro in classical antiproliferative assay in various cancer cells lines. Monolayer tumor cell lines MDA-MB-231 (human mammary breast adenocarcinoma), MCF-7 (human breast adenocarcinoma, estrogen-positive), HT-1080 (human fibrosarcoma) and Caco-2 (human colon adenocarcinoma) were cultured in standard medium DMEM (Dulbecco's modified Eagle's medium) (“Sigma”) supplemented with 10% foetal bovine serum (“Sigma”). About 2000-4000 cells per well (depending on line nature) were placed in 96-well plates and after 24 h compounds were added to the wells. Untreated cells were used as a control. The plates were incubated for 48 h, 37° C., 5% CO2. The number of surviving cells was determined using 3-(4,5-dimethylthiazol-2-yl)-2,5-diphenyltetrazolinium bromide (MTT). MTT-test: after incubating culture medium was removed and 200 μL fresh medium with 20 μL MTT (2 mg/mL in HBSS) was added in each well of the plate. After incubation (3 hr., 37° C., 5% CO2), the medium with MTT was removed and 200 μL DMSO were added at once to each sample. The samples were tested at 540 nm on Thermo Scientific Multiskan EX microplate photometer. The half-maximal inhibitory concentration (IC50) of each compound was calculated using Graph Pad Prism® 3.0.

MDA-MB-231 [5] = test: Sulforhodamine B antiproliferative assay, 72 h, normal/hypoxia, MDA-MB-231; assay type: cell-based, human; conditions: 72 hours exposition; for IC50: Homo sapiens, MDA-MB-231
Protocol: as §2, §1

MCF-7 [6] = test: Sulforhodamine B antiproliferative assay, 72 h, normal/hypoxia, MCF-7; assay type: cell-based, human; conditions: for IC50: Homo sapiens, MCF7
Protocol: as §2, §1

CaCo-2 = test: Sulforhodamine B antiproliferative assay, 72 h, Caco-2; assay type: cell-based, human; conditions: normal (21% of oxygen), 72 hours exposition
HT-29 [7] = test: Sulforhodamine B antiproliferative assay, 72 h, HT-29; assay type: cell-based, human; conditions: normal (21% of oxygen), 72 hours exposition
Protocol: as §2, §1

IC50 (MCF-7 [2]; pretreated with 200 nM estradiol, read-out: IC50 [μg/ml] MCF-7 +estradiol): 2.6 ± 0.5 µg/mL (≈ 8.54 µM)
IC50 (MDA-MB-231 [3]; pretreated with 200 nM estradiol, read-out: IC50 [μg/ml] MDA-MB-231 +estradiol): 3.2 ± 0.3 µg/mL (≈ 10.5 µM)
Compound: CN(C)C(=O)C1CN1S(=O)(=O)c1ccc2ccccc2c1 (stereo not shown) [Compound C-3373, N,N-Dimethyl-1-(2-naphthylsulfonyl)aziridine-2-carboxamide]
IC50 (HT-29 [1]): 33.4 ± 1.1 µg/mL (≈ 110 µM)
IC50 (MCF-7 [2]; not pretreated with estradiol, read-out: IC50 [μg/ml] MCF-7 normal): 3.3 ± 0.1 µg/mL (≈ 10.8 µM)
Selectivity index (SI): IC50 of MCF-10A/IC50 of MCF-7 (MCF-10A): 1.20
IC50 (MDA-MB-231 [3]; not pretreated with estradiol, read-out: IC50 [μg/ml] MDA-MB-231 normal): 3.2 ± 0.1 µg/mL (≈ 10.5 µM)
IC50 (HL-60): 3.1 ± 0.1 µg/mL (≈ 10.2 µM)

Compound: COC(=O)C1CN1S(=O)(=O)c1ccccc1C (stereo not shown) [Compound C-3320, Methyl 1-(o-tolylsulfonyl)aziridine-2-carboxylate]
IC50 (MDA-MB-231 [4]): 380 ± 15 µM

Compound: O=C(C1CC1)N1CCN(Cn2sc3ccccc3c2=O)CC1 [LOC14]
IC50 [μg/ml] MDA-MB-231 hypoxia (MDA-MB-231 [5]; hypoxia (<1% of oxygen)): 2.6 ± 0.5 µg/mL (≈ 8.19 µM)
IC50 [μg/ml] MDA-MB-231 normal (MDA-MB-231 [5]; normal (21% of oxygen)): 2.8 ± 0.4 µg/mL (≈ 8.82 µM)
IC50 [μg/ml] MCF-7 hypoxia (MCF-7 [6]; hypoxia (<1% of oxygen), 72 hours exposition): 3.9 ± 0.3 µg/mL (≈ 12.3 µM)
IC50 [μg/ml] MCF-7 normal (MCF-7 [6]; normal (21% of oxygen), 72 hours exposition): 4.4 ± 0.9 µg/mL (≈ 13.9 µM)
IC50 [μg/ml] Caco-2 normal (CaCo-2): 9.1 ± 3.4 µg/mL (≈ 28.7 µM)
IC50 [μg/ml] HT-29 normal (HT-29 [7]): 12.6 ± 8.4 µg/mL (≈ 39.7 µM)

Compound: COC(=O)C1CN1S(=O)(=O)c1ccc2cc(N(C)C)ccc2c1 (stereo not shown) [Compound C-3397, Methyl 1-[[6-(dimethylamino)-2-naphthyl]sulfonyl]aziridine-2-carboxylate]
IC50 (MDA-MB-231 [4]): 38 ± 2 µM

Compound: NC(=O)C1CN1S(=O)(=O)c1ccc([N+](=O)[O-])cc1 (stereo not shown) [Compound C-3216, 1-(4-Nitrophenyl)sulfonylaziridine-2-carboxamide]
IC50 (MDA-MB-231 [5]; hypoxia (<1% of oxygen), read-out: IC50 [μg/ml] MDA-MB-231 hypoxia): 6.2 ± 3.7 µg/mL (≈ 22.9 µM)
IC50 (MDA-MB-231 [5]; normal (21% of oxygen), read-out: IC50 [μg/ml] MDA-MB-231 normal): 5 ± 1.4 µg/mL (≈ 18.4 µM)
IC50 (MCF-7 [6]; hypoxia (<1% of oxygen), 72 hours exposition, read-out: IC50 [μg/ml] MCF-7 hypoxia): 3.6 ± 0.3 µg/mL (≈ 13.3 µM)
IC50 (MCF-7 [6]; normal (21% of oxygen), 72 hours exposition, read-out: IC50 [μg/ml] MCF-7 normal): 3.7 ± 0.4 µg/mL (≈ 13.6 µM)
Antiproliferative effect, normoxic versus hypoxic conditions (MCF-7 [6]; MCF-7 and MDA-MB-231, Table 3): comparable
IC50 (CaCo-2; Homo sapiens, Caco-2, read-out: IC50 [μg/ml] Caco-2 normal): 4.5 ± 0.8 µg/mL (≈ 16.6 µM)
IC50 (HT-29 [7]; Homo sapiens, HT-29, read-out: IC50 [μg/ml] HT-29 normal): 5.6 ± 0.9 µg/mL (≈ 20.6 µM)
